Results: PMC12141336, “A dual inhibitor of TrxR1 and XIAP induces pyroptosis in melanoma” (Frontiers in Cell and Developmental Biology, 2025)

Columns and labels:
[1] = biological target: T1, TrxR1 (thioredoxin reductase 1) (Rattus norvegicus, UniProt O89049); test: fluorescence quenching (Stern-Volmer) with GST as control; also DTNB assay on recombinant TrxR1, IC50 […]; type: binding
T1 construct: gene Txnrd1
T1 sequence (O89049 1-499): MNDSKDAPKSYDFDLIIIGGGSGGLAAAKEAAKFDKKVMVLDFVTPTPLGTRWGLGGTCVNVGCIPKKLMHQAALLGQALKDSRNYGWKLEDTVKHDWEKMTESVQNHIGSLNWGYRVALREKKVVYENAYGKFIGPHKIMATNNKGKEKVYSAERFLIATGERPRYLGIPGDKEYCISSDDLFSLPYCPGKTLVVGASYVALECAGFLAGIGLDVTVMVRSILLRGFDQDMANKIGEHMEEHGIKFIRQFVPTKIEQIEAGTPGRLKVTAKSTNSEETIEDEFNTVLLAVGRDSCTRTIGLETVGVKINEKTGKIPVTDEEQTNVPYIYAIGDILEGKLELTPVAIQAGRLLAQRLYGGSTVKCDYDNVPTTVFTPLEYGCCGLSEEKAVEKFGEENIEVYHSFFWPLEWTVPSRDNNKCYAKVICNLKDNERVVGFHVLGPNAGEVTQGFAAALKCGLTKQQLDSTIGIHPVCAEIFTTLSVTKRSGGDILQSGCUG

[2] = biological target: T1, TrxR1 (thioredoxin reductase 1); test: DTNB assay on purified recombinant TrxR1, […] h incubation

`CC(=O)CC#[C][Au][P](c1ccccc1)(c1ccccc1)C1CCCCC1` [TRI-03] showed a Kd [1] of 310 ± 50 nM.

`CC[P](CC)(CC)=[Au][S][C@@H]1O[C@H](COC(C)=O)[C@@H](OC(C)=O)[C@H](OC(C)=O)[C@H]1OC(C)=O` [auranofin] was tested, and the IC50 [2] was 1470 ± 30 nM.
